# Target: T1, Tyrosine-protein phosphatase non-receptor type 1 (Homo sapiens, UniProt P18031)
# T1 sequence (P18031 whole entry): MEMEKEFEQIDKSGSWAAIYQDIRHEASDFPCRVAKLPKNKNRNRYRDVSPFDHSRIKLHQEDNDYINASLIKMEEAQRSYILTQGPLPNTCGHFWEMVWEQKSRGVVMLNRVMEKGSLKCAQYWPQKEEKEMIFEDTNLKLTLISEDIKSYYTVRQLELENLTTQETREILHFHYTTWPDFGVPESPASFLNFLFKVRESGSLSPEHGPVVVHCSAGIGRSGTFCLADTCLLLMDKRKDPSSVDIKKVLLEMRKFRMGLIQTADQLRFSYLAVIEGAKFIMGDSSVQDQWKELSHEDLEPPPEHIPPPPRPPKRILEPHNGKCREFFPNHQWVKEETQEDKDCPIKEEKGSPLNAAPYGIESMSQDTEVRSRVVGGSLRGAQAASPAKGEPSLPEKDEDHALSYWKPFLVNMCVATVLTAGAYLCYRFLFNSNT
# Assay: Inhibition of recombinant human PTP1B catalytic domain ([…]) expressed in Escherichia coli BL21-codon plus (DE3) using pNPP as substrate measured continuously for 3 mins by colorimetric method
row,IC50 [µM],SMILES
1,58.2,Cc1cc(O)cc2c1[C@H]1[C@@H]3[C@@H](CC[C@]3(C)O2)C1(C)C
2,43.6,Cc1cc(O)cc2c1O[C@H]1OC(C)(C)[C@@H]3CC[C@@](C)(O2)[C@@H]13
3,48.1,C=C(C)[C@@H]1CC[C@]2(C)Oc3cc(O)cc(C)c3[C@H]1[C@H]2O
4,29,C=C(C)[C@H]1CC[C@@]2(C)Oc3cc(O)cc(C)c3[C@@H]1[C@@H]2O
5,5.7,CC(C)=CCC/C(C)=C/CC/C(C)=C/Cc1c(O)cc(C)cc1O [GRIFOLIN]
6,61,C=C(C)[C@@H]1CC[C@]2(C)Oc3cc(O)cc(C)c3C[C@H]12
7,38.1,CC1=CC(=O)C=C2O[C@@]3(C)CC[C@H](C(C)(C)O)[C@H]3[C@H]3O[C@@]123

# — ChEMBL document CHEMBL4196134, “Enantiomeric Pairs of Meroterpenoids with Diverse Heterocyclic Systems from Rhododendron nyingchiense” (J Nat Prod, 2018)
